Test results taken from patent US11498896B2 (The Broad Institute, Inc., priority 2014, dated 2022).

Columns and labels:
D2 receptor = D2 receptor (Homo sapiens (Human), UniProt P14416); test: D2 radioligand binding assay
human D2R/β-arrestin [1] = molecular target: T1, human D2R/β-arrestin (Homo sapiens (Human), UniProt P14416); test: β-arrestin agonist assay (PathHunter); format: cell-based; settings: CHO-K1 cells expressing human D2R/β-arrestin; agonist mode
Protocol: The detection reagent (9.6 μL, Buffer:Emerald II:Galactor-Star in a 19:5:1 ratio, i.e., 14.06 mL:3.7 mL:0.74 mL=18.5 mL) was then added to the agonist plates.

human D2R/β-arrestin [2] = molecular target: T1, human D2R/β-arrestin; test: Gi/cAMP agonist assay (Lance Ultra cAMP, forskolin); format: cell-based; settings: CHO-K1 cells expressing human D2R/β-arrestin; agonist mode, 2.5 μM forskolin
Protocol: Eu-cAMP tracer solution (10 μl, PerkinElmer, 360 μl of Tracer in 17.64 ml kit buffer) and ULight-anti-cAMP solution (10 μl, 120 μL antibody in 17.88 ml kit buffer) was then added to each well.

human D2R/β-arrestin [3] = molecular target: T1, human D2R/β-arrestin; test: cell-based; settings: β-arrestin Antagonist, CHO-K1 cells expressing human D2R/β-arrestin; antagonist mode, quinpirole 130 nM
human D2R/β-arrestin [4] = molecular target: T1, human D2R/β-arrestin; test: cell-based; settings: cAMP Antagonist, CHO-K1 cells expressing human D2R/β-arrestin; antagonist mode, 2.5 μM forskolin and 2.7 nM quinpirole
Protocol: Cells were prepared for assays by growing cultures for up to 2 weeks (from about 6-20 passages). A vial of frozen cells was thawed in a water bath held at 37° C. The cells were then transferred into a 50 ml tube with 10 ml growth media. The vial was rinsed with growth media and the contents transferred to the 50 ml tube. The 50 ml tube was centrifuged at 1200 rpm for 5 minutes at room temperature. […] When the cells reached about 90% confluence (approximately 3 days between passages), the cells were passaged and used for either the agonist or antagonist assays as described below.
The cells were prepared for Gi/cAMP assays as described above. The assays were performed using a PE Lance Ultra cAMP kit (TRF0263). The cells were grown on 225 mm dishes, then washed once with 1×PBS (Cellgro) before digestion with 2.5 ml 1× Detachment reagent (DRX 92-0009) for about 2 minutes. PBS (20 ml) was then added to the plate, and the cells were transferred to a 50 ml centrifuge tube, and centrifuged at room temperature using BD Dynac III, at 1200 rpm for 5 minutes. […] The plates were then incubated at room temperature for about 30 minutes before addition of Eu-cAMP tracer solution (10 μl, PerkinElmer) and then ULight-anti-cAMP solution (10 μl) to each well.

Chain of D2 receptor (P14416 whole entry): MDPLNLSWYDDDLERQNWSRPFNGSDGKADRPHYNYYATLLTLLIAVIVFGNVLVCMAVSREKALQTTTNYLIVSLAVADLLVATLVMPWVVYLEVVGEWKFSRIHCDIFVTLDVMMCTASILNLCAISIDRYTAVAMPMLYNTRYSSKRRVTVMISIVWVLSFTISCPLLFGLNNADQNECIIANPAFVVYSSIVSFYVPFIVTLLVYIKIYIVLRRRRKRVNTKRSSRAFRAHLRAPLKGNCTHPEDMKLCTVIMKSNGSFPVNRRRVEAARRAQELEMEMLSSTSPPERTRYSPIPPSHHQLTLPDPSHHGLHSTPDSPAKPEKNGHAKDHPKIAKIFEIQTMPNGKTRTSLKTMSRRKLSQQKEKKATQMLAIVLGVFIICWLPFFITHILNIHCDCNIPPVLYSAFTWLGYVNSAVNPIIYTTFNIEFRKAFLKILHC
T1 sequence (P14416 whole entry): as above

Row | Ki (D2 receptor) | EC50 (human D2R/β-arrestin [1]) | EC50 (human D2R/β-arrestin [2]) | IC50 (human D2R/β-arrestin [3]) | IC50 (human D2R/β-arrestin [4]) | SMILES
1 | 1000 to 10000 nM | > 30000 nM | < 100 nM | 1000 to 10000 nM | > 30000 nM | CC1(Oc2ccc(Cl)cc2)CCN(CCOc2ccccc2)C1 (stereo not drawn) [Compound 1, 3-(4-chlorophenoxy)-3-methyl-1-(2-phenoxyethyl)pyrrolidine]
2 | 10000 to 30000 nM | > 30000 nM | > 30000 nM | > 30000 nM | > 30000 nM | CC1(Oc2ccc(Cl)cc2)CCN(CCn2ccccc2=O)C1 (stereo not drawn) [Compound 7, 1-(2-(3-(4-chlorophenoxy)-3-methylpyrrolidin-1-yl)ethyl)pyridin-2(1H)-one]
3 | 100 to 1000 nM | > 30000 nM | > 30000 nM | 1000 to 10000 nM | 100 to 1000 nM | CC1(Oc2ccc(Cl)cc2)CCN(CCCCOc2ccccc2F)C1 (stereo not drawn) [Compound 27, 3-(4-chlorophenoxy)-1-(4-(2-fluorophenoxy)butyl)-3-methylpyrrolidine]
4 | 100 to 1000 nM | > 30000 nM | > 30000 nM | 1000 to 10000 nM | 100 to 1000 nM | Clc1ccc2c(c1)CC1(CCN(CCOc3ccccc3)C1)O2 (stereo not drawn) [Compound 144, 5-chloro-1′-(2-phenoxyethyl)-3H-spiro[benzofuran-2,3′-pyrrolidine]]
5 | – | > 30000 nM | > 30000 nM | 100 to 1000 nM | < 100 nM | CC1(Oc2ccc(Cl)cc2)CCCN(CCOc2ccccc2Cl)C1 (stereo not drawn) [Example 97, 3-(4-chlorophenoxy)-1-(2-(2-chlorophenoxy)ethyl)-3-methylpiperidine]
6 | – | > 30000 nM | > 30000 nM | 100 to 1000 nM | < 100 nM | CC1(Oc2ccc(Cl)cc2)CCCN(CCOc2ccccc2F)C1 (stereo not drawn) [Example 98, 3-(4-Chlorophenoxy)-1-(2-(2-fluorophenoxy)ethyl)-3-methylpiperidine]
7 | – | > 30000 nM | > 30000 nM | 1000 to 10000 nM | 100 to 1000 nM | CC1(Oc2cccc(C(F)(F)F)c2)CCCN(CCOc2ccccc2)C1 (stereo not drawn) [Example 100, 3-methyl-1-(2-phenoxyethyl)-3-(3-(trifluoromethyl)phenoxy)piperidine]
8 | – | > 30000 nM | > 30000 nM | 10000 to 30000 nM | 1000 to 10000 nM | CC1(Oc2ccc(Cl)cc2)CCCN(C(C)(C)COc2ccccc2)C1 (stereo not drawn) [Example 108, 3-(4-Chlorophenoxy)-3-methyl-1-(2-methyl-1-phenoxypropan-2-yl)piperidine]
9 | – | < 100 nM | < 100 nM | < 100 nM | > 30000 nM | CC1(Oc2ccccc2)CCN(CCOc2ccccc2C#N)CC1 [Example 109, 2-(2-(4-methyl-4-phenoxypiperidin-1-yl)ethoxy)benzonitrile]

Second part, the compound before the results:

Row | SMILES | Ki (D2 receptor) | EC50 (human D2R/β-arrestin [1]) | EC50 (human D2R/β-arrestin [2]) | IC50 (human D2R/β-arrestin [3]) | IC50 (human D2R/β-arrestin [4])
10 | CNC(=O)C1(C)CCN(CC2COc3ccccc3O2)CC1 (single isomer, unassigned) [Compound 202b, 1-((2,3-dihydrobenzo[b][1,4]dioxin-2-yl)methyl)-N,4-dimethylpiperidine-4-carboxamide] | 1000 to 10000 nM | > 30000 nM | 100 to 1000 nM | 100 to 1000 nM | 100 to 1000 nM
11 | CC1(Oc2ccc(Cl)cc2)CCN(CCOc2cc(F)ccc2C(F)(F)F)CC1 [Compound 122, 4-(4-Chlorophenoxy)-1-(2-(5-fluoro-2-(trifluoromethyl)phenoxy)ethyl)-4-methylpiperidine] | 100 to 1000 nM | > 30000 nM | < 100 nM | 100 to 1000 nM | > 30000 nM
12 | COC1(C)CCN(CCOc2ccccc2C(F)(F)F)CC1 [Compound 123, 4-methoxy-4-methyl-1-(2-(2-(trifluoromethyl)phenoxy)ethyl) piperidine] | < 100 nM | > 30000 nM | > 30000 nM | 100 to 1000 nM | 100 to 1000 nM
13 | FC(F)(F)c1ccccc1OCCN1CCC2(CCCN2c2ccc(Cl)cc2)CC1 [Compound 135, 1-(4-Chlorophenyl)-8-(2-(2-(trifluoromethyl)phenoxy)ethyl)-1,8-diazaspiro[4.5]decane] | < 100 nM | > 30000 nM | > 30000 nM | < 100 nM | < 100 nM
14 | Fc1ccccc1OCCN1CCC2(CC1)CCN2c1ccc(Cl)cc1 [Compound 137, 1-(4-chlorophenyl)-7-(2-(2-fluorophenoxy)ethyl)-1,7-diazaspiro[3.5]nonane] | < 100 nM | > 30000 nM | > 30000 nM | < 100 nM | < 100 nM
15 | CC1(O)CCN(CC2COc3ccccc3O2)CC1 (stereo not drawn) [Compound 140, 1-((2,3-dihydrobenzo[b][1,4]dioxin-2-yl)methyl)-4-methylpiperidin-4-ol] | 10000 to 30000 nM | 1000 to 10000 nM | < 100 nM | 100 to 1000 nM | > 30000 nM
16 | CC1(Oc2ccccn2)CCN(CCOc2ccc(C(F)(F)F)cc2)CC1 [Compound 164, 2-((4-methyl-1-(2-(4-(trifluoromethyl)phenoxy)ethyl)piperidin-4-yl)oxy)pyridine] | 10000 to 30000 nM | > 30000 nM | 100 to 1000 nM | 10000 to 30000 nM | > 30000 nM
17 | CN(C)C(=O)C1(C)CCN(C[C@H]2COc3ccccc3O2)CC1 [Compound 205, (S)-1-((2,3-dihydrobenzo[b][1,4]dioxin-2-yl)methyl)-N,N,4-trimethylpiperidine-4-carboxamide] | 100 to 1000 nM | 100 to 1000 nM | < 100 nM | 100 to 1000 nM | > 30000 nM
18 | CC1(C(=O)N2CCCC2)CCN(C[C@H]2COc3ccccc3O2)CC1 [Compound 206, (S)-(1-((2,3-dihydrobenzo[b][1,4]dioxin-2-yl)methyl)-4-methylpiperidin-4-yl)(pyrrolidin-1-yl)methanone] | 100 to 1000 nM | < 100 nM | < 100 nM | < 100 nM | > 30000 nM
19 | CC(=O)NC1(C)CCN(C[C@H]2COc3ccccc3O2)CC1 [Compound 208, (S)—N-(1-((2,3-dihydrobenzo[b][1,4]dioxin-2-yl)methyl)-4-methylpiperidin-4-yl)acetamide] | 100 to 1000 nM | 100 to 1000 nM | < 100 nM | < 100 nM | > 30000 nM
20 | CC1(NC(=O)C2CC2)CCN(C[C@H]2COc3ccccc3O2)CC1 [Compound 209, (S)—N-(1-((2,3-dihydrobenzo[b][1,4]dioxin-2-yl)methyl)-4-methylpiperidin-4-yl)cyclopropanecarboxamide] | 100 to 1000 nM | > 30000 nM | < 100 nM | < 100 nM | > 30000 nM
21 | CC(=O)NC1(C)CCN(C[C@H]2COc3ccc(F)cc3O2)CC1 [Compound 210, (S)—N-(1-((7-fluoro-2,3-dihydrobenzo[b][1,4]dioxin-2-yl)methyl)-4-methylpiperidin-4-yl)acetamide] | 100 to 1000 nM | 100 to 1000 nM | < 100 nM | 100 to 1000 nM | > 30000 nM
22 | O=[N+]([O-])c1ccc(OC2(c3ccccc3)CCN(CCOc3ccccc3)C2)cc1 (stereo not drawn) [Example 94, 3-(4-nitrophenoxy)-1-(2-phenoxyethyl)-3-phenylpyrrolidine] | – | > 30000 nM | 100 to 1000 nM | 1000 to 10000 nM | 1000 to 10000 nM
23 | FC(F)(F)c1ccccc1OCCN1CCC(=Cc2ccccc2)CC1 [Example 101, 4-benzylidene-1-(2-(2-(trifluoromethyl)phenoxy)ethyl)piperidine] | – | > 30000 nM | > 30000 nM | 1000 to 10000 nM | 1000 to 10000 nM
24 | FC(F)(F)c1ccccc1OCCN1CCC2(CC1)CC2c1ccccc1 (stereo not drawn) [Example 102, 1-Phenyl-6-(2-(2-(trifluoromethyl)phenoxy)ethyl)-6-azaspiro[2.5]octane] | – | > 30000 nM | 100 to 1000 nM | 1000 to 10000 nM | 1000 to 10000 nM
25 | OC(c1ccccc1)C1(O)CCN(CCOc2ccccc2C(F)(F)F)CC1 (stereo not drawn) [Example 103, 4-(Hydroxy(phenyl)methyl)-1-(2-(2-(trifluoromethyl)phenoxy)ethyl) piperidin-4-ol] | – | > 30000 nM | > 30000 nM | 100 to 1000 nM | 100 to 1000 nM
26 | CC1(Oc2ccccc2Cl)CCN(CCOc2ccccc2C(F)(F)F)CC1 [Example 104, 4-(2-Chlorophenoxy)-4-methyl-1-(2-(2-(trifluoromethyl)phenoxy)ethyl) piperidine] | – | > 30000 nM | 10000 to 30000 nM | 100 to 1000 nM | 1000 to 10000 nM
27 | CC1(Oc2ccccn2)CCN(CCOc2ccccc2C(F)(F)F)CC1 [Example 105, 2-((4-methyl-1-(2-(2-(trifluoromethyl)phenoxy)ethyl)piperidin-4-yl)oxy) pyridine] | – | > 30000 nM | < 100 nM | 100 to 1000 nM | < 100 nM
28 | CC1(C(O)c2ccccc2)CCN(CCOc2ccccc2C(F)(F)F)CC1 (stereo not drawn) [Example 107, (4-methyl-1-(2-(2-(trifluoromethyl)phenoxy)ethyl)piperidin-4-yl)(phenyl)methanol] | – | 10000 to 30000 nM | < 100 nM | 100 to 1000 nM | 100 to 1000 nM
29 | CN(C)c1ccccc1OCCN1CCC(C)(Oc2ccccc2)CC1 [Example 111, N,N-dimethyl-2-(2-(4-methyl-4-phenoxypiperidin-1-yl)ethoxy)aniline] | – | > 30000 nM | > 30000 nM | 1000 to 10000 nM | 100 to 1000 nM
